Measured values: US20060009452A1, “Therapeutic targeting of PARC/CCL18 and its signaling in pulmonary fibrosis” (priority 2004, published 2006)
Entries after “also recorded” stand apart in the source; their conditions may differ. *1 amine or outer side, *2 acyl side, *3 side chain or, on linkers, in order; H or OH if unused. Where a SMILES comes first, the peptide text is derived from it. Bridges are numbered along the chain shown (N, C = ends). Roman numbers before positions name the chains, in order. [ ]: non-standard residue; d: D form. Actinocin(9to1) = Cc1c2oc3c(C)ccc(C(=O)[*:1])c3nc-2c(C(=O)[*:2])c(N)c1=O; NMeV = CN[C@H](C(=O)O)C(C)C; Sar = CNCC(=O)O

How the values were obtained:
[1] = test system: ERK1/2; experiment: Immunoblotting for phosphorylation of ERK1/2; assay type: cell-based, human; details: LF1, rhPARC 15 min, toxin 10 ng/ml
[2] = test system: fibroblasts; details: reported for MCP-1; cited from earlier work
[3] = target: Autocrine (active) TGF-β secreted by human primary lung fibroblast cultures (human); experiment: cell-based or functional assay
[4] = test system: Smad3; experiment: Smad3 immunoprecipitation and phosphorylation Western blot; assay type: cell-based, human; details: fibroblasts activated with cytokine
Experimental: To determine if PARC stimulated phosphorylation of Sp1 and Smad3, these factors were immunoprecipitated from lysates of fibroblasts that had been activated with recombinant human PARC for up to 24 hours, and the levels of their phosphorylation were tested in Western blotting assays using anti-phosphoserine and anti-phospho-Smad2/3 antibodies. Equal loading was controlled by stripping the membranes and re-developing them with anti-Sp1, anti-Smad3 and anti-Smad2/3 antibodies (FIG. 17).
Preparation of fibroblast lysates, immunoprecipitation of Sp1 and Smad2/3, normalization of protein concentration in the samples with BioRad assays, electrophoretic separation, Western blotting, membrane stripping and re-development with different antibodies were performed as described in Atamas et al. (Am. J. Respir. Cell. Mol., 29:743-749 (2003); J. Immunol. 168: 1139-1145 (2002); and Arthritis Rheum., 42:1168-1178 (1999)), which are hereby incorporated by reference. Rabbit antibodies for total Smad2/3 and Sp1 were from Upstate (Waltham, Masss.). Antiphospho-Smad2/3 antibody and goat antibody for total Smad3 were from Santa Cruz Biotechnology (Santa Cruz, Calif.), as was anti-gp130 antibody used to confirm equal loading of the samples. Antiphosphoserine antibody was from Biomol (Plymouth Meeting, Pa.).

[5] = test system: lung fibroblasts; experiment: Collagen production, metabolic labeling with 14C-proline, PAGE and autoradiography; assay type: cell-based, human; details: for effect on PARC activated collagen production: LF2 lung fibroblasts, 14C-proline
Experimental: Collagen Production Assays. Production of collagen was assessed using metabolic labeling with ^14C-proline and Western blotting with anti-collagen type I antibody. For metabolic labeling of collagen, fibroblasts were plated at 2×10^5 cells/well in 6-well plates (Costar, Cambridge, Mass.), in duplicates, incubated overnight in 3 ml/well of high serum medium, and then for 24 h in low-serum medium. After that, the culture medium was replaced with 1 ml/well of fresh low serum medium with or without added test substances and containing ^14C-proline at 1 μCi/ml (Amersham Pharmacia Biotech). After incubation for the desired periods of time, the cell culture supernatants were collected, rapidly frozen in liquid nitrogen and freeze-dried at −70° C. The pellets were dissolved in 100 μl of reducing Laemmli buffer per 1 ml of the cell culture supernatant, and the samples were electrophoretically separated in 7.5% acrylamide gels. Alternatively, samples were concentrated 10-fold by filter centrifugation on 30K Ultrafree-MC filters (Millipore, Bedford, Mass.). Fluorographic images were developed using EN[3H]ANCE autoradiography enhancer (NEN, Boston, Mass.). Gel images were acquired using Storm densitometer (Molecular Dynamics, Sunnyvale, Calif.), and the densities of the bands were analyzed with ImageQuant software (Molecular Dynamics). Dependence of collagen production by fibroblast cultures on the dose of PARC and duration of stimulation were evaluated using one-way ANOVA with post hoc testing.
The identity of collagen bands was confirmed by sensitivity to pepsin and collagenase (both from Sigma) digestion. For pepsin digestion, 2 μl of 1 Macetic acid were added to 40 μl of concentrated fibroblast culture supernatant, followed by 1 μl of pepsin stock, to achieve final concentration of pepsin as indicated in the text. After 15 min of digestion at room temperature, reaction was stopped with 4 μl of 1 M Tris base and 40 μl of reducing Laemmli buffer. For collagenase digestion, 1 μl of 4 U/ml bacterial collagenase and 1 μl of protease inhibitor cocktail (Sigma) were added to 40 μl of sample and digestion performed at room temperature for 30 min. The bacterial collagenase was highly purified and had minimal clostripain and neutral protease activity, as tested by the manufacturer, according to the product information sheet.
To test effects of rhPARC on collagen protein production by lung and dermal fibroblast cell lines, fibroblast cultures were incubated for 48 h with or without 30 ng/ml and 300 ng/ml rhPARC in the low-serum cell culture medium containing 14Cproline for metabolic labeling of collagen. Fibroblast culture supernatants contained two 14C-proline containing bands in gel electrophoresis under reducing conditions (FIGS. 13A and 13B). Digestion with chromatographically pure bacterial collagenase in the presence of protease inhibitors eliminated the bands completely (FIG. 13A). To confirm the identity of these bands, we conducted Western blotting experiments in reducing conditions of fibroblast culture supernatants using an anti-collagen type I antibody, that recognizes α1(I) collagen but not other collagen chains. Digestion with pepsin caused expected decrease in the apparent molecular weight of the immunoreactive collagen from ˜175 kD to ˜125 kD (FIG. 13C).

[6] = test system: lung fibroblasts; experiment: Western blotting of fibroblast culture supernatants for collagen type I / α1(I); assay type: cell-based, human; details: lung fibroblast cultures, 48 h; for effect on PARC-stimulated collagen production: inhibitor plus PARC; for effect on TGF-β-stimulated collagen production: inhibitor plus TGF-β
Experimental: Collagen Production Assays. Collagen was quantified as described elsewhere (Atamas S P et al.). Briefly, fibroblasts were cultured with β-aminopropionitrile (Sigma) to prevent collagen cross-linking, and Western blotting assays for collagen were performed using rabbit affinity purified anti-collagen type I antibody (Rockland, Gilbertsville, Pa.). Before electrophoresis, samples were reduced and denatured by boiling in Laemmli buffer containing β-mercaptoethanol. Human purified collagen type I (Southern Biotech, Birmingham, Ala.) was used as a positive control in these assays. The identity of collagen bands was confirmed by sensitivity to pepsin and collagenase (both from Sigma) digestion, as described (Atamas S P et al.). Under these conditions, pro-collagen appears as a single or double band around 175 kDa (Gaidarova S et al., Stefanovic B et al.). Images were collected using a Storm densitometer and band densities analyzed with ImageQuant software (Molecular Dynamics, Sunnyvale, Calif.).
Western blotting assays for collagen were performed using rabbit affinity purified anti-collagen type I antibody (Rockland, Gilbertsville, Pa.). Before electrophoresis, samples were reduced and denatured by boiling in Laemmli buffer containing β-mercaptoethanol. Human purified collagen type I (Southern Biotech, Birmingham, Ala.) was used as a positive control in these assays.
Collagen was quantified by Western blotting and the identity of collagen bands was confirmed by sensitivity to pepsin and collagenase digestion as described elsewhere in Atamas et al. (Am. J. Respir. Cell. Mol., 29:743-749 (2003)). In these assays, pro-collagen appears as a single or double band with a molecular weight of approximately 175 kDa (4,27,28).

[7] = test system: α2(I) collagen mRNA; experiment: Real-time PCR for α2(I) collagen mRNA relative to 18S rRNA; assay type: cell-based, human; details: 10 μg/ml actinomycin D before stimulation with PARC
[8] = listed as Recombinant latency-associated peptide

Bordetella PT [reference compound]
effect on PARC-stimulated ERK phosphorylation [1]: inhibited phosphorylation of ERK; also recorded: block PARC-stimulated ERK phosphorylation

MCP-1: CC chemokine known to induce collagen production in pulmonary fibroblasts through autocrine TGF-β
concentration stimulating detectable collagen production [2]: 100 to 400 ng/mL

Neutralizing anti-pan-TGF-β antibody, monoclonal mouse IgG1 clone 1D11 (R&D Systems)
mink lung epithelial cell proliferation (thymidine incorporation); antibody concentration that abrogates the inhibition [3]: 1 µg/mL

rhTGF-β1: Recombinant human TGF-β1 from R&D Systems, positive control for fibroblast stimulation
phosphorylation of immunoprecipitated Smad3 [4]: increased phosphorylation of Smad3

rhIL-4: recombinant human interleukin 4 purchased from R&D Systems
combined density of procollagen bands, fold higher than non-stimulated control ([5]; LF2 cells, 10 ng/ml rhIL-4, 48 h): 2.9 fold

rhLAP: Latency-associated peptide (R&D Systems) used for TGF-β neutralization
effect on PARC-stimulated collagen production [6, 8]: failed to block the effect of PARC | effect on TGF-β-stimulated collagen production [6]: inhibited stimulating effect of TGF-β | effect on TGF-β-stimulated collagen production ([6]; listed as Recombinant human LAP): inhibited stimulating effect of TGF-β | effect on TGF-β-stimulated collagen production [6, 8]: inhibited the effect of TGF-β

C[S+]([O-])c1ccc(-c2nc(-c3ccncc3)c(-c3ccc(F)cc3)[nH]2)cc1 (stereo not drawn) [SB203580, reference compound]
effect on PARC activated collagen production [5]: had no effect

Cc1c2oc3c(C)ccc(C(=O)N[C@@H]4C(=O)N[C@H](C(C)C)C(=O)N5CCC[C@H]5C(=O)N(C)CC(=O)N(C)[C@@H](C(C)C)C(=O)O[C@@H]4C)c3nc-2c(C(=O)N[C@@H]2C(=O)N[C@H](C(C)C)C(=O)N3CCC[C@H]3C(=O)N(C)CC(=O)N(C)[C@@H](C(C)C)C(=O)O[C@@H]2C)c(N)c1=O [actinomycin D, Actinomycin D, reference compound] (I: T[dV]P[Sar][NMeV] / II: T[dV]P[Sar][NMeV]; ester I:1-I:C, II:1-II:C; linker I:N-II:N via Actinocin(9to1))
effect on PARC-induced increase in collagen mRNA [7]: completely abrogated the increase in collagen mRNA

NC(=O)c1ccc(-c2nc(-c3ccc4c(c3)OCO4)c(-c3ccccn3)[nH]2)cc1 [SB431542, reference compound]
effect on TGF-β-stimulated collagen production [6]: blocked TGF-β-stimulated; also recorded: abrogated TGF-β-stimulated

COc1cccc(-c2cc(=O)c3ccccc3o2)c1N [PD98059, reference compound]
effect on PARC activated collagen production [5]: inhibited PARC activated collagen production

Aprotinin [reference compound]
effect on PARC-stimulated collagen production [6]: failed to inhibit the effect of PARC | effect on TGF-β-stimulated collagen production [6]: had no effect on collagen production
